In US10100027B2, “Benzofuran analogue as NS4B inhibitor” (priority 2014, dated 2018):

Key:
Type in all cases: cell-based
[1] = tested on: HCV genotype 1b (HCV-1b) replicon cells; assay: HCV genotype 1b replicon cell assay (luciferase, Bright-Glo); conditions: Hepatitis C virus, 72 h, HCV-1b (Con1) replicon cells, 3 days
Experimental: (§1) The EC50 and CC50 values of anti-HCV compounds were determined by HCV genotype 1a (HCV-1a) and 1b (HCV-1b) stable transfected replication (replicon) cells. The source of genotype 1a replicon is H77 clones containing K1691R, K2040R and S2204I adaptive mutations. The source of genotype 1b replicon is Con1 clones containing E1202G, T1280I and K1846T adaptive mutations.
(§2) HCV 1a (HCV-1a) and 1b (HCV-1b) gene subtype replicon system contains the related HCV gene subtype non-structural protein gene, G418 resistance gene NEO and luciferase gene, which results in that HCV related protein and luciferase can be stably expressed in cells. By detecting the level of expression of luciferase gene, the level of HCV replication can be determined. Therefore, the system is used as a model for screening the activity of anti-HCV compound in vitro.
(§3) The compound powder was dissolved in 100% DMSO. Then the compound was diluted 5 times with 6 points, and added into the cell plate with Echo liquid handler. Ensure the final concentration of DMSO was 0.5%. Each compound was tested in duplicate.
(§4) 4) Diluting cells to 8×10^4 cells/mL with the culture medium, adding the diluted cells into the compound-containing 96-well plate (Greiner, Cat. #655090) (100 μL/well, 8000 cells/well) with automatic liquid separator (Thermo Scientific). Then place into a 37° C., 5% CO2 incubator for 3 days. Cell control well: no compound, only containing 0.5% DMSO.
(§5) 6) Then adding luciferase substrate Bright-Glo, after incubation for 5 minutes, detecting the luciferase activity by microplate reader Envison (wavelength>700 nm); analyzing the anti-HCV inhibitory activity of the compounds according to luminescence data, which was used to calculate EC50 values.
(§6) The EC50 or CC50 values were obtained by nonlinear fitting regression on inhibition percentage (inh %) data with GraphPad Prism software.

[2] = tested on: HCV genotype 1a (HCV-1a) replicon cells; assay: HCV genotype 1a replicon cell assay (luciferase, Bright-Glo); conditions: Hepatitis C virus, 72 h, HCV-1a (H77) replicon cells, 3 days
Experimental: as §1, §2, §3, §4, §5, §6

[3] = Cytotoxicity in HCV replicon cells (Cell Titer-fluor)
Experimental: as §1, §3, §4
5) Adding fluorescence substrate Cell Titer-fluor to the cell well, after incubation for 30 minutes, detecting the signal by microplate reader Envison (Ex at 405 nm and read at 515 nm). The effect of the compounds on the cytotoxicity of HCV replicon cells was analyzed according to the fluorescence data, which was used to calculate the CC50 values.
as §6

SMILES | EC50 [1] [nM] | EC50 [2] [nM] | CC50 at 3 days [3] [nM]
O=C(c1nc2c(C(F)(F)F)cc(C3CC3)cn2c1Cl)N1CCN(C2CCCC2)C(=O)N1 [YA_0338] | 0.1 to 100 | 0.1 to 100 | > 3000
O=C1NN(C(=O)c2nc3c(C(F)(F)F)cc(C4CC4)cn3c2Cl)CCN1CC(F)F [YA_0358] | 100 to 1000 | 100 to 1000 | > 3000
O=C(c1nc2c(C(F)(F)F)cc(C3CC3)cn2c1Cl)N1CCN([C@H]2C[C@H](O)C2)C(=O)N1 [YA_0359] | – | – | > 3000
CC(C)N1CCN(C(=O)c2nc3c(C(F)(F)F)cc(C4CC4)cn3c2Cl)NC1=O [YA_0360] | 0.1 to 100 | 0.1 to 100 | > 3000
O=C1NN(C(=O)c2nc3c(C(F)(F)F)cc(C4CC4)cn3c2Cl)CCN1CC(F)(F)F [YA_0361] | – | – | > 3000
O=C(c1nc2c(C(F)(F)F)cc(C3CC3)cn2c1Cl)N1CCN(C2CC2)C(=O)N1 [YA_0362] | – | – | > 3000
O=C(c1nc2c(C(F)(F)F)cc(C3CC3)cn2c1Cl)N1CCN([C@H]2CC[C@H](O)CC2)C(=O)N1 [YA_0363] | 0.1 to 100 | 0.1 to 100 | > 3000
O=C(c1nc2c(C(F)(F)F)cc(C3CC3)cn2c1Cl)N1CCN(C2CCC(F)(F)CC2)C(=O)N1 [YA_0366] | 0.1 to 100 | 0.1 to 100 | > 3000
O=C(c1nc2c(C(F)(F)F)cc(C3CC3)cn2c1Cl)N1CCN(C2CC(F)(F)C2)C(=O)N1 [YA_0367] | 0.1 to 100 | 0.1 to 100 | > 3000
Cc1cc(C(F)(F)F)c2nc(C(=O)N3CCN(C(C)(C)C)C(=O)N3)c(Cl)n2c1 [YA_0368] | 100 to 1000 | 0.1 to 100 | > 3000
Cc1nnc(C23CCC(NC(=O)c4cc5cc(C(C)C)cc(C(F)(F)F)c5o4)(CC2)CC3)o1 [YD_0019] | 100 to 1000 | – | > 3000
CC(C)c1cc(C(F)(F)F)c2oc(C(=O)N3CCN(C4CCC(O)CC4)C(=O)C3)cc2c1 (stereo not drawn) [YD_0044] | 0.1 to 100 | – | > 3000
Cc1nnc(C23CCC(NC(=O)c4oc5c(C(F)(F)F)cc(C6CC6)cc5c4Cl)(CC2)CC3)o1 [YD_0056] | 1000 to 5000 | – | > 3000
Cc1nnc(C23CCC(NC(=O)c4oc5c(C(F)(F)F)cc(C6CC6)cc5c4Br)(CC2)CC3)o1 [YD_0057] | 100 to 1000 | – | > 3000
Cc1nnc(C23CCC(NC(=O)c4oc5c(C(F)(F)F)cc(C6CC6)cc5c4C)(CC2)CC3)o1 [YD_0058] | 100 to 1000 | – | > 3000
Cc1nnc(C23CCC(NC(=O)c4oc5c(C(F)(F)F)cc(C(C)C)cc5c4Cl)(CC2)CC3)o1 [YD_0059] | 100 to 1000 | 0.1 to 100 | > 3000
CCCc1cc(C(F)(F)F)c2oc(C(=O)NC34CCC(c5nnc(C)o5)(CC3)CC4)c(Cl)c2c1 [YD_0060] | 100 to 1000 | – | > 3000
O=C(NC12CCC(c3nnco3)(CC1)CC2)c1oc2c(C(F)(F)F)cc(C3CC3)cc2c1Cl [YD_0122] | 100 to 1000 | 0.1 to 100 | > 3000
O=C(c1oc2c(C(F)(F)F)cc(C3CC3)cc2c1Cl)N1CCN(N2CCOC2=O)CC1 [YD_0214] | 0.1 to 100 | 0.1 to 100 | > 3000
CC(C)c1cc(C(F)(F)F)c2oc(C(=O)N3CCN(N4CCOC4=O)CC3)c(Cl)c2c1 [YD_0215] | 0.1 to 100 | 0.1 to 100 | > 3000
CCCc1cc(C(F)(F)F)c2oc(C(=O)N3CCN(N4CCOC4=O)CC3)c(Cl)c2c1 [YD_0216] | 0.1 to 100 | 0.1 to 100 | > 3000
O=C(c1oc2c(C(F)(F)F)cc(C3CC3)cc2c1Cl)N1CCN(N2CCOC2=O)C(=O)C1 [YD_0219] | 0.1 to 100 | 0.1 to 100 | > 3000
O=C(c1oc2c(F)cc(C3CC3)cc2c1Cl)N1CCN(N2CCOC2=O)CC1 [YD_0245] | 0.1 to 100 | 0.1 to 100 | > 3000
N#Cc1c(C(=O)N2CCN(N3CCOC3=O)CC2)oc2c(C(F)(F)F)cc(C3CC3)cc12 [YD_0250] | 0.1 to 100 | 0.1 to 100 | > 3000
